Each structure is given as a SMILES string.

This assay deals with TNAP (Homo sapiens (Human), UniProt P05186). The experiment in a line: TNAP (PPi) inhibition assay, pyrophosphate as substrate. The class given is biochemical. In short, it runs like this:
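Enzyme source was conditioned serum-free medium from COS-1 cells transiently expressing tagged human TNAP, dialyzed against TBS with MgCl2/ZnCl2. Activity on natural substrate PPi at pH 7.4 read as liberated phosphate (Biomol Green).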
As a reminder, the IC50 is the concentration needed to halve the response being measured. Low values mean inhibition by little substance, high ones a need for much substance. `COc1ccc(Br)cc1S(=O)(=O)Nc1cncc(C(=O)Nc2ccccc2)c1` [Example IV-23, 5-(5-Bromo-2-methoxyphenylsulfonamido)-N-phenylnicotinamide] had an IC50 of 100 to 1000 nM.

Take `COc1ccc(Br)cc1S(=O)(=O)Nc1cncc(C(=O)N2CCOCC2)c1` [Example IV-24, 5-Bromo-2-methoxy-N-(5-(morpholine-4-carbonyl)pyridin-3-yl)benzenesulfonamide]: the IC50 was above 1000 nM.

As to `COc1ccc(Br)cc1S(=O)(=O)Nc1cncc(C(=O)N2CCN(C)CC2)c1` [Example IV-25, 5-Bromo-2-methoxy-N-(5-(4-methylpiperazine-1-carbonyl)pyridin-3-yl)benzenesulfonamide], the concentration for half-maximal inhibition (IC50) fell in the range of 100 to 1000 nM.

In turn, `COc1ccc(Cl)cc1S(=O)(=O)Nc1cncc(C(N)=O)c1` [Example IV-26, 5-(5-Chloro-2-methoxyphenylsulfonamido)nicotinamide] came in with an IC50 below 100 nM.

`CCCNC(=O)c1cncc(NS(=O)(=O)c2cc(Cl)ccc2OC)c1` [Example IV-29, 5-(5-Chloro-2-methoxyphenylsulfonamido)-N-propylnicotinamide] showed an IC50 below 100 nM.

The compound `COc1ccc(Cl)cc1S(=O)(=O)Nc1cncc(C(=O)NC2CCCCC2)c1` [Example IV-30, 5-(5-Chloro-2-methoxyphenylsulfonamido)-N-cyclohexylnicotinamide] came in with a 50% inhibitory concentration (IC50) below 100 nM.

As for `COCCNC(=O)c1cncc(NS(=O)(=O)c2cc(Cl)ccc2OC)c1` [Example IV-32, 5-(5-Chloro-2-methyoxyphenylsulfonamido)-N-(2-methoxyethyl)nicotinamide], the IC50 was in the range of 100 to 1000 nM.

Compound `COc1ccc(Cl)cc1S(=O)(=O)Nc1cncc(C(=O)NCCN(C)C)c1` [Example IV-33, 5-(5-Chloro-2-methoxyphenylsulfonamido)-N-(2-(dimethylamino)ethyl)nicotinamide] had an IC50 of 100 to 1000 nM.

The compound `COc1ccc(Cl)cc1S(=O)(=O)Nc1cncc(C(=O)N2CCOCC2)c1` [Example IV-34, 5-Chloro-2-methoxy-N-(5-(morpholine-4-carbonyl)pyridin-3-yl)benzenesulfonamide] gave a concentration for half-maximal inhibition (IC50) of 100 to 1000 nM.

As for `COc1ccc(OC)c(S(=O)(=O)Nc2cncc(C(N)=O)c2)c1` [Example IV-36, 5-(2,5-Dimethoxyphenylsulfonamido)nicotinamide], the IC50 fell in the range of 100 to 1000 nM.

`CNC(=O)c1cncc(NS(=O)(=O)c2cc(OC)ccc2OC)c1` [Example IV-37, 5-(2,5-Dimethoxyphenylsulfonamido)-N-methylnicotinamide] displayed an IC50 of 100 to 1000 nM.

`CCCNC(=O)c1cncc(NS(=O)(=O)c2cc(OC)ccc2OC)c1` [Example IV-38, 5-(2,5-Dimethoxyphenylsulfonamido)-N-propylnicotinamide] returned an IC50 of 100 to 1000 nM.

As to `COc1ccc(OC)c(S(=O)(=O)Nc2cncc(C(=O)NC3CCCCC3)c2)c1` [Example IV-39, 5-(2,5-Dimethoxyphenylsulfonamido)-N-cyclohexylnicotinamide], the IC50 was below 100 nM.

Compound `COc1ccc(OC)c(S(=O)(=O)Nc2cncc(C(=O)Nc3ccccc3)c2)c1` [Example IV-40, 5-(2,5-Dimethoxyphenylsulfonamido)-N-phenylnicotinamide] displayed an IC50 of 100 to 1000 nM.

As to `COCCNC(=O)c1cncc(NS(=O)(=O)c2cc(OC)ccc2OC)c1` [Example IV-41, 5-(2,5-Dimethoxyphenylsulfonamido)-N-(2-methoxyethyl)nicotinamide], the IC50 is 100 to 1000 nM.

On to `COc1ccc(OC)c(S(=O)(=O)Nc2cncc(C(=O)NCCN(C)C)c2)c1` [Example IV-42, 5-(2,5-Dimethoxyphenylsulfonamido)-N-(2-(dimethylamino)ethyl)nicotinamide], for which the IC50 was in the range of 100 to 1000 nM.

`COc1ccc(OC)c(S(=O)(=O)Nc2cncc(C(=O)N3CCOCC3)c2)c1` [Example IV-43, 2,5-Dimethoxy-N-(5-(morpholine-4-carbonyl)pyridin-3-yl)benzenesulfonamide] yielded a concentration for half-maximal inhibition (IC50) of 100 to 1000 nM.

Values taken from patent publication US10370333B2 (Sanford Burnham Prebys Medical Discovery Institute, priority 2012, dated 2019).
